Patent publication US6370478B1, “Methods for drug interaction prediction using biological response profiles” (Rosetta Inpharmatics, Inc., priority 1998, dated 2002)

Columns and labels:
[1] = test system: Yeast (Saccharomyces cerevisiae, Strain YPH499) mRNA transcripts; assay: Yeast mRNA response profiles measured with DNA microarrays (transcript measurement); assay type: cell-based
Method: Experimental methods were described in Marton et al., 1998, Drug Target Validation And Identification of Secondary Drug Target Effects Using DNA Microarrays, NATURE-MEDICINE 4:1293-301, incorporated herein by reference for all purposes. Dose response curves are plotted only for about 50 genes with the largest responses. […] In this case, any concentration near or above about 1 μg/ml would be informative, and the choice could be refined based on knowledge of the significance of the set of genes that responds at the higher concentrations.
The following experimental methods were used for all the examples. Specific experimental design is described by the examples and their accompanying figures. The specific protocol was also described in Marton et al., 1998, Drug Target Validation And Identification of Secondary Drug Target Effects Using DNA Microarrays, NATURE-MEDICINE 4:1293-301.
Yeast (Saccharomyces cerevisiae, Strain YPH499, see, Sikorski and Hieter, 1989, A system of shuttle vectors and yeast host strains designated for efficient manipulation of DNA in Saccharomyces cerevisiae, Genetics 122:19-27) cells were grown in YAPD at 30° C. to an OD600 of 1.0 (±0.2), and total RNA prepared by breaking cells in phenol/chloroform and 0.1 % SDS by standard procedures (Ausubel et al., 1995, Current Protocols in Molecular Biology, Greene Publishing and Wiley-Interscience, New York, Ch. 13). Poly(A)^+ RNA was selected by affinity chromatography on oligo-dT cellulose (New England Biolabs) essentially as described in Sambrook et al. (Molecular Cloning—A Laboratory Manual (2nd Ed.), Vol. 1, Cold Spring Harbor Laboratory, Cold Spring Harbor, N.Y., 1989). […]
Fluorescently-labeled cDNAs (2-6 μg) are resuspended in 4×SSC plus 1 μg/μl tRNA as carrier and filtered using […] filters (Millipore, Bedford, Mass.). […] Microarrays were scanned with a fluorescence laser-scanning device as previously described (Schena et al., 1995, Science 270:467-470; Schena et al., 1995, Proc. Natl. Acad. Sci. USA 93:[…]) and the results (including the positions of perturbations) are recorded.

wild type yeast cells = conditions: 10 micrograms/ml; Gari et al., 1997; cited from earlier work

## Clc1ccccc1C(c1ccccc1)(c1ccccc1)n1ccnc1 [Clotrimazole]
[1]; FIG. 4, overlap with effects of opposite sign
  relationship of the response profiles of Clotrimazole and Cyclosporin A: anti-correlation

## C=CC[C@@H]1/C=C(\C)C[C@H](C)C[C@H](OC)[C@H]2O[C@@](O)(C(=O)C(=O)N3CCCC[C@H]3C(=O)O[C@H](/C(C)=C/[C@@H]3CC[C@@H](O)[C@H](OC)C3)[C@H](C)[C@@H](O)CC1=O)[C@H](C)C[C@@H]2OC [FK506]
[1]; FIG. 1, dose response of about 50 genes with the largest responses
  concentration at which genes mediated by the primary target (calcineurin) reach saturation response: about 1 μg/ml
[1]; FK506 (1.6 μg/ml) vs Cyclosporin A (30 μg/ml), genes with significant up and down regulations at the 95% confidence level, FIG. 3
  correlation coefficient between the two drug response profiles: 0.86

## C[C@H]1c2cccc(O)c2C(=O)C2=C(O)[C@]3(O)C(=O)C(C(N)=O)=C(O)[C@@H](N(C)C)[C@@H]3[C@@H](O)[C@@H]21 [doxycycline]
Wild type yeast cells
  effect on the growth rate: no significant effect
